Assays:
[1] = system: γH2AX, 53BP1 and pRPA foci in LN229 MGMT+/-, MMR+/- cells; assay: Immunofluorescence foci assays; format: cell-based, human; conditions: 20 µM
Description: Immunofluorescence Foci Assays. High-throughput immunofluorescence foci assays were performed at the Yale Center for Molecular Discovery (YCMD). Cells were seeded at 2000 cells/well in black polystyrene flat bottom 384-well plates (Greiner Bio-One) and allowed to adhere overnight. Compound addition was performed utilizing a Labcyte Echo 550 liquid handler (Beckman Coulter), with 6 replicates per test condition and 12 replicates per control condition. Following drug incubation, cells were fixed and stained for phospho-SER139-H2AX (yH2AX), 53BP1, or phospho-SER33-RPA2 (pRPA) as follows.
γH2AX protocol: Cells were fixed with 4% paraformaldehyde in 1X PBS for 15 min, washed twice with 1X PBS, incubated in extraction buffer (0.5% Triton X-100 in 1X PBS) for 10 min, washed twice with 1X PBS, and incubated in blocking buffer (Blocker Casein in PBS, Thermo Scientific + 5% goat serum, Life Technologies) for 1 h. Mouse anti-phospho-histone H2A.X (Ser139) antibody (clone JBW301, Millipore, 05-636) was added 1/1000 in blocking buffer at 4° C. overnight. After washing with 1X PBS, cells were incubated with goat anti-mouse IgG (H+L) highly cross-adsorbed secondary antibody, Alexa Fluor 647 (Invitrogen, A-21236) 1/500 and with 1 µg/mL Hoechst nucleic acid dye in blocking buffer for 2 h, and then washed with 1X PBS. […]

[2] = system: LN229 MGMT-/MMR+ flank tumors
[3] = system: linearized pUC19 plasmid DNA; assay: Melting temperature assay; format: biochemical; conditions: 100 or 500 µM, 3 h
[4] = system: LN229 MGMT+/-, MMR+/- cells; assay: Short-term cell viability assay, four isogenic LN229 glioblastoma cell lines; format: cell-based, human
[5] = system: CHK1 and CHK2 phosphorylation in LN229 MGMT+/-, MMR+/- cells; assay: Western blotting of CHK1 and CHK2 phosphorylation; format: cell-based, human; conditions: 20 µM, 24 or 48 h
Description: Western Blotting. For phospho-protein analysis experiments, cells were lysed in 1X RIPA buffer (Cell Signaling Technology, #9806) supplemented with 1X Protease Inhibitor Cocktail (Roche) and 1X PhosSTOP Phosphatase Inhibitor Cocktail (Sigma). For all other western blot analyses, cells were lysed in lysis buffer (50 mM HEPES, 250 mM NaCl, 5 mM EDTA, 1% NP-40) supplemented with 1X Protease Inhibitor Cocktail (Roche). The de-ubiquitination inhibitor N-ethylmaleimide (NEM, 4 mM) was added in FANCD2 ubiquitination analysis experiments. Proteins were separated using NuPAGE 4-12% Bis-Tris or 3-8% Tris-Acetate Gels (Invitrogen) and transferred to Immobilon-P PVDF membrane (Millipore) for western blotting. Membranes were blocked with 5% milk in TBS-T for 1 h prior to primary antibody addition overnight at 4° C. […] Where shown, bands were quantified using ImageJ software.

SMILES: NC(=O)c1ncn2c(=O)n(CCF)nnc12 [KL-50]
- γH2AX, 53BP1, pRPA foci formation ([1]; 2 to 48 h): maximal foci response at 48 h, specifically in MGMT- cells and irrespective of MMR status
- DDR foci across cell cycle phases ([1]; 48 h): foci formation primarily in the S- and G2-phases
- tumor growth ([2]; 5 mg/kg MWF × 3 weeks, P.O.): statistically non-inferior to TMZ (1a)
- body weight ([2]; LN229 flank tumor experiments, compared to TMZ or control): no significant changes in body weight
- DNA melting temperature [3]: comparable changes in measured DNA melting temperature
- activity in the four LN229 cell lines [4]: mirrored that of 4b
- rescue of toxicity by ROS scavenger NAC [4]: did not result in rescue
- selectivity for MGMT-deficient cells ([4]; LN229): ~ 25 fold
- CHK1 and CHK2 phosphorylation [5]: induced CHK1 and CHK2 phosphorylation in MGMT- cells regardless of MMR status

From patent US20230212202A1, “TREATMENT OF MGMT DEFICIENT CANCER WITH 2-FLUOROETHYL-SUBSTITUTED NITROSOUREAS AND OTHER COMPOUNDS” (YALE UNIVERSITY, priority 2021, published 2023)
